Measurements reported in paper PMC6253880, “2-Amido-3-(1H-Indol-3-yl)-N-Substitued-Propanamides as a New Class of Falcipain-2 Inhibitors. 1. Design, Synthesis, Biological Evaluation and Binding Model Studies” (Molecules, 2009).
Like-named read-outs stand apart in the source and are kept apart here. Values belong to the compound of their own block, whether it stands above or below them.

Assays:
falcipain-2 (FP-2) [1] = molecular target: T1, falcipain-2 (FP-2) (Plasmodium falciparum, UniProt Q8I6U4); assay: Surface plasmon resonance-based FP-2/ligand binding assay (Biacore 3000, CM5 chip); settings: SPR, immobilized FP-2, steady state affinity fitting, 25°C, HBS-EP pH 7.4
T1 construct: made in house
T1 sequence (Q8I6U4 244-484): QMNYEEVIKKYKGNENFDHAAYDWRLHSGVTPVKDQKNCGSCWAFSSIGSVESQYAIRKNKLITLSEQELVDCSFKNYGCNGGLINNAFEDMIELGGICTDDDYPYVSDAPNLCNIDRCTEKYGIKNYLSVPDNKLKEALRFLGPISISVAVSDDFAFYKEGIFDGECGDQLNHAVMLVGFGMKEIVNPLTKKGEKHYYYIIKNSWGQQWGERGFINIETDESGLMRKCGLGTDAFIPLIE
Source text: Targeting the crystal structure of FP-2 (PDB entry 2GHU), a total of 80,000 compounds were subsequently docked and ranked according to the Glide and GAsDock software. Finally, 81 compounds were purchased and submitted to biological evaluations against FP-2. Because enzymatic assays are time-consuming, surface plasmon resonance (SPR) measurements were used for the primary screening to determine the binding affinity of these 81 candidate molecules to FP-2. […] Among the 81 compounds, the biosensor RU of compound 1 was concentration-dependent. […] Thus, compound 1 could be designated as a binder (or hit) of FP-2.
The purification and refolding of recombinant protein FP-2 was performed as described by Shenai et al. The binding affinity of compound 1 to FP-2 in vitro was determined based on surface plasmon resonance (SPR) technology. The measurement was performed using the dual flow cell Biacore 3000 instrument (Biacore AB, Uppsala, Sweden). Immobilization of FP-2 to the hydrophilic carboxymethylated dextran matrix of the sensor chip CM5 (Biacore) was carried out by the standard primary amine coupling reaction wizard. […] The equilibrium constants (KD values) evaluating the protein–ligand binding affinities were determined by the steady state affinity fitting analysis of the Biacore data.

falcipain-2 (FP-2) [2] = molecular target: T1, falcipain-2 (FP-2); assay: Enzyme inhibition assay, recombinant FP-2, substrate Z-Leu-Arg-AMC, fluorescence; format: biochemical; settings: for Inhibition rate at 10 μM (%): 10 μM compound; for Inhibition rate at 10 μM (%) / inhibition at 10 µM: FP-2 30 nM, pH 5.5, 30 min preincubation
Experimental: (§1) For the primary assay, the percent inhibitions of the compounds were measured at 10 μM. […] It is clear that the inhibitory activity of compound 2k was ~3 times higher than that of the lead compound 1, proving the validity of our chemical modifications. The anti-malarial potential of compound 1 in mice was investigated with Plasmodium berghei ANKA using a standard 4-day suppression test.
The purification and refolding of recombinant protein FP-2 was performed as described by Shenai et al. IC50 values against recombinant FP-2 were determined as described previously. FP-2 (30nM) was incubated for 30 min at room temperature in 100 mM sodium acetate, pH 5.5, 10 mM DTT, with different concentrations of tested inhibitors. Inhibitor solutions were prepared from stock in DMSO (maximum concentration of DMSO in the assay was 1%). After 30 min incubation, the substrate Z-Leu-Arg-AMC (benzoxycarbonyl-Leu-Arg-7-amino-4-methylcoumarin, Bachem AG) in the same buffer was added to a final concentration of 25 μM. The increase in fluorescence (excitation at 355 nm and emission at 460 nm) was monitored for 30 min at room temperature with an automated microtiter plate spectrofluorimeter (Molecular Devices, Flex Station). Half-maximal inhibitory concentration (IC50) was determined from plots of percent activity over compound concentration using GraphPad Prism software.

Plasmodium berghei ANKA = assay: Standard 4-day suppression test in mice; format: in vivo; settings: 9 mg/kg body weight intragastric daily for 4 days following infection, unpublished data
Experimental: as §1

[3] = pH 5.5, read-out: Inhibition rate at 10 μM (%), 10 μM compound
[4] = pH 5.5, 10 μM compound, read-out: Inhibition rate at 10 μM (%)

SMILES: O=C(N[C@H](Cc1c[nH]c2ccccc12)C(=O)NCc1ccccc1)Oc1ccccc1 [Compound 1, (R)-2-Phenoxycarboxamido-3-(1H-indol-3-yl)-N-benzylpropanamide]
Kd (falcipain-2 (FP-2) [1]): 5.88 µM
IC50 (falcipain-2 (FP-2) [2]): 29.7 µM
Inhibition rate at 10 μM (%) (falcipain-2 (FP-2) [2]): 29.4%
inhibition at 10 µM (falcipain-2 (FP-2) [2]; [3]): > 20%
reduction in parasitemia relative to normal control (Plasmodium berghei ANKA): < 50%

SMILES: O=C(N[C@@H](Cc1c[nH]c2ccccc12)C(=O)NCc1ccccc1)Oc1ccccc1 [Compound 2a, (S)-2-Phenoxycarboxamido-3-(1H-indol-3-yl)-N-benzylpropanamide]
inhibition at 10 µM (falcipain-2 (FP-2) [2]; [3]): 14.3%

Inhibition rate at 10 μM (%) (falcipain-2 (FP-2) [2]): 25.7%
inhibition at 10 µM (falcipain-2 (FP-2) [2]; [4]): > 20%
IC50 (falcipain-2 (FP-2) [2]; recombinant FP-2 30 nM, Z-Leu-Arg-AMC 25 μM, pH 5.5, read-out: IC50): 39.4 µM
SMILES: O=C(Cc1ccccc1)N[C@H](Cc1c[nH]c2ccccc12)C(=O)NCc1ccccc1 [Compound 2b, (R)-2-(2-Phenylacetamido)-3-(1H-indol-3-yl)-N-benzylpropanamide]

inhibition at 10 µM (falcipain-2 (FP-2) [2]; [4]): 13%
melting point: 38 to 40 °C
SMILES: O=C(NCc1ccccc1)[C@@H](Cc1c[nH]c2ccccc12)NCc1ccccc1 [Compound 2c, (R)-2-Benzylamino-3-(1H-indol-3-yl)-N-benzyl-propanamide]

SMILES: O=C(N[C@H](Cc1c[nH]c2ccccc12)C(=O)Nc1ccccc1)Oc1ccccc1 [Compound 2d, (R)-2-Phenoxycarboxamido-3-(1H-indol-3-yl)-N-phenylpropanamide]
inhibition at 10 µM (falcipain-2 (FP-2) [2]; [3]): 11.8%
melting point: 195 to 197 °C

SMILES: O=C(N[C@H](Cc1c[nH]c2ccccc12)C(=O)Nc1ccc(F)cc1)Oc1ccccc1 [Compound 2e, (R)-2-Phenoxycarboxamido-3-(1H-indol-3-yl)-N-(4-fluorophenyl)-propanamide]
inhibition at 10 µM (falcipain-2 (FP-2) [2]; [3]): 3.1%
melting point: 185 to 189 °C

SMILES: CCOc1ccc(NC(=O)[C@@H](Cc2c[nH]c3ccccc23)NC(=O)Oc2ccccc2)cc1 [Compound 2f, (R)-2-Phenoxycarboxamido-3-(1H-indol-3-yl)-N-(4-ethoxyphenyl)-propanamide]
inhibition at 10 µM (falcipain-2 (FP-2) [2]; [3]): 13.6%
melting point: 180 to 184 °C

SMILES: O=C(N[C@H](Cc1c[nH]c2ccccc12)C(=O)Nc1ccc2c(c1)OCO2)Oc1ccccc1 [Compound 2g, (R)-2-Phenoxycarboxamido-3-(1H-indol-3-yl)-N-(benzo[1,3]dioxol-5-yl)-propanamide]
inhibition at 10 µM (falcipain-2 (FP-2) [2]; [3]): 3.1%
melting point: 186 to 188 °C

SMILES: O=C(N[C@H](Cc1c[nH]c2ccccc12)C(=O)NCc1cccs1)Oc1ccccc1 [Compound 2i, (R)-2-Phenoxycarboxamido-3-(1H-indol-3-yl)-N-[(thiophen-2-yl)methyl]-propanamide]
inhibition at 10 µM (falcipain-2 (FP-2) [2]; [3]): 2.2%
melting point: 184 to 186 °C

SMILES: C#CCNC(=O)[C@@H](Cc1c[nH]c2ccccc12)NC(=O)Oc1ccccc1 [Compound 2j, (R)-2-Phenoxycarboxamido-3-(1H-indol-3-yl)-N-(prop-2-yn-1-yl)-propanamide]
inhibition at 10 µM (falcipain-2 (FP-2) [2]; [3]): 6.6%
melting point: 173 to 177 °C

SMILES: O=C(N[C@H](Cc1c[nH]c2ccccc12)C(=O)NCc1ccc([N+](=O)[O-])cc1)Oc1ccccc1 [Compound 2k, (R)-2-Phenoxycarboxamido-3-(1H-indol-3-yl)-N-[(4-nitrophenyl)methyl]-propanamide]
IC50 (falcipain-2 (FP-2) [2]): 10 µM
FP-2 inhibitory activity relative to lead compound 1 (fold better) (falcipain-2 (FP-2) [2]; ratio of inhibitory activity versus compound 1): ~ 3

SMILES: COC(=O)c1ccc(CNC(=O)[C@@H](Cc2c[nH]c3ccccc23)NC(=O)Oc2ccccc2)cc1 [Compound 2l, (R)-2-Phenoxycarboxamido-3-(1H-indol-3-yl)-N-(4-methoxycarbonyl-phenylmethyl)-propanamide]
IC50 (falcipain-2 (FP-2) [2]): 13.3 µM
Inhibition rate at 10 μM (%) (falcipain-2 (FP-2) [2]): 32.9%
inhibition at 10 µM (falcipain-2 (FP-2) [2]; [3]): > 20%
